Measured values from patent US6822102B2, “Dihydrobenzopyrans, dihydrobenzothiopyrans, and tetrahydroquinolines for the treatment of COX-2 mediated disorders” (Pharmacia Corporation, priority 2000, dated 2004).

How the values were obtained:
COX-2 [1] = target: T1, COX-2 (UniProt P35354); assay: Fast assay for COX-2 activity (PGE2 ELISA, recombinant enzyme); assay type: biochemical, human or murine; details: column marked *; footnote not given
T1 sequence (P35354 1-604): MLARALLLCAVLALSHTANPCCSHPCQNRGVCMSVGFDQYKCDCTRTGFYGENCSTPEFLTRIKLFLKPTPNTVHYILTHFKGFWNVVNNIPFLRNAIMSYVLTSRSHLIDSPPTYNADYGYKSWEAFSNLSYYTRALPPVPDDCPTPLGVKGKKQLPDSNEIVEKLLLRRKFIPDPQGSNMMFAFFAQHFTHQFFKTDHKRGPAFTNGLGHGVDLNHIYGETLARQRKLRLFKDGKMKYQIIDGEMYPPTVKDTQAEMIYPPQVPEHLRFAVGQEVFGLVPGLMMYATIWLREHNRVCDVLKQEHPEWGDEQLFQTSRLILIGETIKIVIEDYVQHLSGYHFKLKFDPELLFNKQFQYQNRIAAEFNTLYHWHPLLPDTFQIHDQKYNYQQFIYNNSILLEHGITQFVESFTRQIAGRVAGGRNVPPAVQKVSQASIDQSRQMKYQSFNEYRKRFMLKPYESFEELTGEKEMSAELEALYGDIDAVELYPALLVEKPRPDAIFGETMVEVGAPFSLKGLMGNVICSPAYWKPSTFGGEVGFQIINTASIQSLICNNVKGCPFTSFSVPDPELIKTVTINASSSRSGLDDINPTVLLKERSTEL
Experimental: (§1) The COX-2 inhibition activity of the compounds of this invention illustrated in the Examples was determined by the following methods.
(§2) a. Preparation of recombinant COX baculoviruses
(§3) Recombinant COX-1 and COX-2 were prepared as described by Gierse et al, [J. Biochem., 305, 479-84 (1995)]. A 2.0 kb fragment containing the coding region of either human or murine COX-1 or human or murine COX-2 was cloned into a BamHI site of the baculovirus transfer vector pVL1393 (Invitrogen) to generate the baculovirus transfer vectors for COX-1 and COX-2 in a manner similar to the method of D. R. O'Reilly et al (Baculovirus Expression Vectors: A Laboratory Manual (1992)). Recombinant baculoviruses were isolated by transfecting 4 μg of baculovirus transfer vector DNA into SF9 insect cells (2×10^8) along with 200 ng of linearized baculovirus plasmid DNA by the calcium phosphate method. See M. D. Summers and G. E. Smith, A Manual of Methods for Baculovirus Vectors and Insect Cell Culture Procedures, Texas Agric. Exp. Station Bull. 1555 (1987). Recombinant viruses were purified by three rounds of plaque purification and high titer (10^7-10^8 pfu/mL) stocks of virus were prepared. For large scale production, SF9 insect cells were infected in 10 liter fermentors (0.5×10^6/mL) with the recombinant baculovirus stock such that the multiplicity of infection was 0.1. After 72 hours the cells were centrifuged and the cell pellet homogenized in Tris/Sucrose (50 mM: 25%, pH 8.0) containing 1% 3-[(3-cholamidopropyl) dimethylammino]-1-propanesulfonate (CHAPS). The homogenate was centrifuged at 10,000×G for 30 minutes, and the resultant supernatant was stored at −80° C. before being assayed for COX activity.
(§4) c. Fast assay for COX-1 and COX-2 activity
(§5) COX activity was assayed as PGE2 formed/μg protein/time using an ELISA to detect the prostaglandin released. CHAPS-solubilized insect cell membranes containing the appropriate COX enzyme were incubated in a potassium phosphate buffer (0.05 M Potassium phosphate, pH 7.5, 2 μM phenol, 1 μM heme, 300 μM epinephrine) with the addition of 20 μl of 100 μM arachidonic acid (10 μM). Compounds were pre-incubated with the enzyme for 10 minutes at 25° C. prior to the addition of arachidonic acid. Any reaction between the arachidonic acid and the enzyme was stopped after two minutes at 37° C./room temperature by transferring 40 μl of reaction mix into 160 μl ELISA buffer and 25 μM indomethacin. The PGE2 formed was measured by standard ELISA technology (Cayman Chemical).

COX-1 [2] = target: COX-1 (UniProt P23219); assay: Fast assay for COX-1 activity (PGE2 ELISA, recombinant enzyme); assay type: biochemical, human or murine; details: column marked *; footnote not given
Experimental: as §2, §3, §4, §5

COX-2 [3] = target: T1, COX-2; assay: Assay for COX-2 activity (PGE2 ELISA, recombinant enzyme); assay type: biochemical, human or murine; details: without asterisk
Experimental: as §1, §2, §3
(§6) b. Assay for COX-1 and COX-2 activity
(§7) COX activity was assayed as PGE2 formed/μg protein/time using an ELISA to detect the prostaglandin released. CHAPS-solubilized insect cell membranes containing the appropriate COX enzyme were incubated in a potassium phosphate buffer (50 mM, pH 8.0) containing epinephrine, phenol, and heme with the addition of arachidonic acid (10 μM). Compounds were pre-incubated with the enzyme for 10-20 minutes prior to the addition of arachidonic acid. Any reaction between the arachidonic acid and the enzyme was stopped after ten minutes at 37° C./room temperature by transferring 40 μl of reaction mix into 160 μl ELISA buffer and 25 μM indomethacin. The PGE2 formed was measured by standard ELISA technology (Cayman Chemical).

COX-1 [4] = target: COX-1 (UniProt P23219); assay: Assay for COX-1 activity (PGE2 ELISA, recombinant enzyme); assay type: biochemical, human or murine; details: without asterisk
Experimental: as §2, §3, §6, §7

carrageenan foot edema = assay: Rat carrageenan foot pad edema test; assay type: in vivo; details: oral, male Sprague-Dawley rats, 3 h after carrageenan
Experimental: Rat Carrageenan Foot Pad Edema Test The carrageenan foot edema test was performed with materials, reagents and procedures essentially as described by Winter, et al., (Proc. Soc. Exp. Biol. Med., 111, 544 (1962)). Male Sprague-Dawley rats were selected in each group so that the average body weight was as close as possible. Rats were fasted with free access to water for over sixteen hours prior to the test. The rats were dosed orally (1 mL) with compounds suspended in vehicle containing 0.5% methylcellulose and 0.025% surfactant, or with vehicle alone. One hour later a subplantar injection of 0.1 mL of 1% solution of carrageenan/sterile 0.9% saline was administered and the volume of the injected foot was measured with a displacement plethysmometer connected to a pressure transducer with a digital indicator. Three hours after the injection of the carrageenan, the volume of the foot was again measured. The average foot swelling in a group of drug-treated animals was compared with that of a group of placebo-treated animals and the percentage inhibition of edema was determined (Otterness and Bliven, Laboratory Models for Testing NSAIDs, in Non-steroidal Anti-Inflammatory Drugs, (J. Lombardino, ed. 1985)).

Analgesia (Table I) = assay type: in vivo

| SMILES | IC50 (COX-2 [1]) [nM] | IC50 (COX-1 [2]) [nM] | IC50 (COX-2 [3]) [nM] | IC50 (COX-1 [4]) [nM] | melting point [°C] | RAT PAW EDEMA % Inhibition @ 30 mg/kg body weight (carrageenan foot edema) [%] | ANALGESIA % Inhibition @ 30 mg/kg body weight (Analgesia (Table I)) [%] |
| --- | --- | --- | --- | --- | --- | --- | --- |
| O=C(O)[C@@H]1Cc2c(ccc(Cl)c2Cl)O[C@@H]1C(F)(F)F (racemic) [Example 3, rel-(2R, 3S)-5,6-dichloro-3,4-dihydro-2-(trifluoromethyl)-2H-1-benzopyran-3-carboxylic acid] | 200 | 5700 | 200 | > 100000 | 173 to 174.4 | – | – |
| O=C(O)[C@@H]1Cc2cc(Cl)c(Cl)c(Cl)c2O[C@@H]1C(F)(F)F (racemic) [Example 7, rel-(2R, 3S)-3,4-dihydro-6,7,8-trichloro-2-(trifluoromethyl)-2H-1-benzopyran-3-carboxylic acid] | 600 | 54000 | 700 | > 100000 | 205.2 to 208.1 | – | – |
| CC(C)(C)c1cc2c(cc1Cl)C[C@@H](C(=O)O)[C@@H](C(F)(F)F)O2 [Example 4, (2S,3R)-6-chloro-3,4-dihydro-7-(1,1-dimethylethyl)-2-(trifluoromethyl)-2H-1-benzopyran-3-carboxylic acid] | 1600 | 1300 | > 100000 | 12000 | 115.8 to 120.9 | – | – |
| O=C(O)[C@@H]1Cc2cc(Cl)cc(Cl)c2S[C@@H]1C(F)(F)F (racemic) [Example 1, rel-(2R, 3S)-6,8-dichloro-3,4-dihydro-2-(trifluoromethyl)-2H-1-benzothiopyran-3-carbolic acid] | – | – | – | – | 165 to 170.2 | – | – |
| O=C(O)[C@@H]1Cc2cc(OC(F)(F)F)ccc2O[C@@H]1C(F)(F)F (racemic) [Example 11, rel-(2R,3S)-3,4-dihydro-6-trifluoromethoxy-2-(trifluoromethyl)-2H-1-benzopyran-3-carboxylic acid] | 600 | 65000 | 400 | > 100000 | 120.1 to 120.8 | – | – |
| O=C(O)[C@@H]1Cc2cc(Cl)cc(Cl)c2S[C@@H]1C(F)(F)F (relative stereo) [Example 1, rel-(2R, 3S)-6,8-dichloro-3,4-dihydro-2-(trifluoromethyl)-2H-1-benzothiopyran-3-carbolic acid] | 600 | 600 | 300 | 600 | – | – | – |
| O=C(O)[C@@H]1Cc2c(Cl)ccc(Cl)c2O[C@@H]1C(F)(F)F (racemic) [Example 8, rel-(2R,3S)-5,8-dichloro-3,4-dihydro-2-(trifluoromethyl)-2H-1-benzopyran-3-carboxylic acid] | 2300 | 8700 | 2000 | 22000 | 185.7 to 188.9 | – | – |
| O=C(O)[C@@H]1Cc2cc(Cl)ccc2N[C@@H]1C(F)(F)F [Example 6, (2S,3R)-6-Chloro-1,2,3,4-tetrahydro-2-(trifluoromethyl)-3-quinolinecarboxylic acid] | 2600 | > 100000 | 25000 | > 100000 | 154.4 to 154.5 | – | – |
| N#Cc1ccc2c(c1)C[C@@H](C(=O)O)[C@@H](C(F)(F)F)O2 (racemic) [Example 10, rel-(2R,3S)-6-cyano-3,4-dihydro-2-(trifluoromethyl)-2H-1-benzopyran-3-carboxylic acid] | 4800 | > 100000 | 18000 | > 100000 | 169 to 170.4 | – | – |
| O=C(O)[C@@H]1Cc2cc(Cl)cc(Cl)c2O[C@@H]1C(F)(F)F [Example 2, (2S,3R)-6,8-dichloro-3,4-dihydro-2-(trifluoromethyl)-2H-1-benzopyran-3-carboxylic acid] | 300 | 1000 | 200 | 2800 | 100.3 to 101.1 | 52 | 56 |
| O=C(O)[C@@H]1Cc2c(cc(Cl)c(Cl)c2Cl)O[C@@H]1C(F)(F)F (racemic) [Example 5, rel-(2R,3S)-3,4-dihydro-5,6,7-trichloro-2-(trifluoromethyl)-2H-1-benzopyran-3-carboxylic acid] | 400 | > 100000 | 400 | > 100000 | 207.3 to 208.5 | – | – |
| O=C(O)[C@@H]1Cc2cc(Cl)ccc2O[C@@H]1C(F)(F)F [Example 9, (2S,3R)-6-chloro-3,4-dihydro-2-(trifluoromethyl)-2H-1-benzopyran-3-carboxylic acid] | 500 | > 100000 | 29000 | > 100000 | 118.1 to 119.2 | – | – |
